Test results: patent US12559472B2, “Salts of a compound and the crystalline forms thereof” (HUTCHISON MEDIPHARMA LIMITED, priority 2019, dated 2026)
≈ marks a conversion by molar mass, not a printed value.

Experiments:
[1] = test system: FGFR; conditions: cited from earlier work
[2] = Solubility in buffers with different pHs and in water (Example 19); type: physicochemical; conditions: for solubility at 30 min: 37 °C, thermodynamic from solid
Method: The solubility results were all calculated based on the free form. The buffers with different pHs were prepared according to the United States Pharmacopeia (USP40-NF35).

solubility at 30 min ([2]; pH 1.2 buffer (USP), pH 1.2, simulated gastric fluid, pH 1.2 buffer, 30 minutes, calculated based on the free form): 721 µg/mL (≈ 1420 µM)
solubility at 30 min ([2]; pH 2.1 buffer (USP), pH 2.1, aqueous buffer, pH 2.1 buffer, 30 minutes, calculated based on the free form): 174 µg/mL (≈ 342 µM)
solubility at 30 min ([2]; pH 4.5 buffer (USP), pH 4.5, aqueous buffer, pH 4.5 buffer, 30 minutes, calculated based on the free form): ≤ 12600 µg/mL
Solubility ([2]; pH 4.5 buffer, 37° C., 30 minutes, calculated based on the free form): 12588.8 µg/mL (≈ 24700 µM)
solubility at 30 min ([2]; pH 6.8 buffer (USP), pH 6.8, aqueous buffer, pH 6.8 buffer, 30 minutes, calculated based on the free form): 67.5 µg/mL (≈ 133 µM)
solubility at 30 min ([2]; purified water, water, 30 minutes, calculated based on the free form): 2.3 µg/mL (≈ 4.52 µM)
Structure (SMILES): CNC(=O)c1cc(CCc2cnc(Nc3ccc(N4C[C@@H](C)N[C@@H](C)C4)cc3)nc2)c(Cl)c(OC)c1 [Compound 78, 4-chloro-3-(2-(2-((4-((3S,5R)-3,5-dimethylpiperazin-1-yl)phenyl)amino)pyrimidin-5-yl)ethyl)-5-methoxy-N-methylbenzamide]
Inhibition of FGFR activity [1]: can effectively inhibit FGFR activity
Solubility (in words) ([2]; all test media): greatly different solubility in different media
